# Results published in patent EP4603105A1, “PHARMACEUTICAL COMPOSITION CONTAINING CYCLIC COMPOUND HAVING SELECTIVE KRAS INHIBITORY EFFECT AGAINST HRAS AND NRAS” (CHUGAI SEIYAKU KABUSHIKI KAISHA, priority 2022, dated 2024).
# *1 amine or outer side, *2 acyl side, *3 side chain or, on linkers, in order; H or OH if unused. Where a SMILES comes first, the peptide text is derived from it. Bridges are numbered along the chain shown (N, C = ends). [ ]: non-standard residue; d: D form. The star is where a group is joined. X23 = O=C([C@H](Cc1ccc(C(F)(F)F)cc1)N(CC1CCCC1)[*:1])[*:2]; hPhe(3-Cl-4-CF3) = N[C@@H](CCc1ccc(C(F)(F)F)c(Cl)c1)C(=O)O; X24 = CC(C)CN([C@@H](Cc1ccc(C(F)(F)F)cc1)C(=O)[*:2])[*:1]; X39 = O=C([C@H](Cc1ccc(C(F)(F)F)cc1)N(CC1CCC1)[*:1])[*:2]; X33 = O=C([C@H](Cc1ccc(C(F)(F)F)cc1)N(CC1CC1)[*:1])[*:2]; X12 = C=CCN([C@@H](Cc1ccc(C(F)(F)F)cc1)C(=O)[*:2])[*:1]; X18 = CCCCN([C@@H](Cc1ccc(C(F)(F)F)cc1)C(=O)[*:2])[*:1]; X42 = Cc1ccc(C[C@@H](C(=O)[*:2])N(CCC(F)(F)F)[*:1])cc1; X28 = Cc1ccc(C[C@@H](C(=O)[*:2])N(CC2CCCCC2)[*:1])cc1; X27 = COCCCN([C@@H](Cc1ccc(C)cc1)C(=O)[*:2])[*:1]; X46 = C=CCCN([C@@H](Cc1ccc(C)cc1)C(=O)[*:2])[*:1]; X14 = COCCN([C@@H](Cc1ccc(C)cc1)C(=O)[*:2])[*:1]; X50 = C=CCN([C@@H](Cc1ccc(C)cc1)C(=O)[*:2])[*:1]; NMeGly(cPent) = CN[C@H](C(=O)O)C1CCCC1; NMeD = CN[C@@H](CC(=O)O)C(=O)O; NMeL = CN[C@@H](CC(C)C)C(=O)O; Morpholide = C1CN(*)CCO1; NMeA = CN[C@@H](C)C(=O)O; Ac5c = NC1(C(=O)O)CCCC1; Aze = O=C(O)[C@@H]1CCN1; Sar = CNCC(=O)O
# Legend:
# [1] = biological target: GDP-bound NRAS wild-type protein (Homo sapiens, UniProt P01111); assay: Binding to NRAS by surface plasmon resonance (SPR), KD and KD ratio to KRAS; settings: ratio of KD for GDP-bound NRAS wild-type protein to KD for KRAS
# Chain of GDP-bound NRAS wild-type protein (P01111 whole entry): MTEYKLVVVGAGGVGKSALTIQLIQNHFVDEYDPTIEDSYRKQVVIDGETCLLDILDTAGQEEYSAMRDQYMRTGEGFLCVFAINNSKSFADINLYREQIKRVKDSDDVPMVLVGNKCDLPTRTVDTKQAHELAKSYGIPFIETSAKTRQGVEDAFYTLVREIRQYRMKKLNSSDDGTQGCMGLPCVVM
# Outline: (§1)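 GDP-loaded biotinylated Avi-tag RAS proteins (E. coli-expressed) captured on a Biotin CAPture chip at ~100–300 RU; single-cycle kinetics at 30°C, 100 µL/min, 75 s injections of rising compound concentrations. HBS pH 7.4 running buffer with 1 mM DTT, 10 mM MgCl2, 10 µM GDP, 4% DMSO. KD from 1:1 binding fit.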
# HRAS wild-type protein = HRAS wild-type protein (Homo sapiens, UniProt P01112); assay: Binding to HRAS by surface plasmon resonance (SPR), KD and KD ratio to KRAS; settings: ratio of KD for HRAS wild-type protein to KD for KRAS
# Chain of HRAS wild-type protein (P01112 whole entry): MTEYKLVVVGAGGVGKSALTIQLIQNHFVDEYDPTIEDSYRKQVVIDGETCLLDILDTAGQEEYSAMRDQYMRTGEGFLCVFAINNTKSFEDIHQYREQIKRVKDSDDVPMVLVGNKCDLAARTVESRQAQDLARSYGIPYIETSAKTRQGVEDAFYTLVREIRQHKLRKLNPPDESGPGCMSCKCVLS
# Outline: as §1
# [2] = tested on: human lung cancer strain NCI-H441; assay type: cell-based
# Outline: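 Readout: […] after the ATP-based reagent. Compound: serial dilutions in dimethyl sulfoxide.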
SMILES,NRAS /KRAS [1],HRAS /KRAS (HRAS wild-type protein),IC50 [2]
CC[C@H](C)[C@@H]1NC(=O)[C@H](CC(C)C)N(C)C(=O)C[C@@H](C(=O)N2CCOCC2)N(C)C(=O)[C@H](C2CCCC2)N(C)C(=O)C2(CCCC2)NC(=O)[C@@H]2CCCN2C(=O)[C@H](CCc2ccc(C(F)(F)F)c(Cl)c2)NC(=O)CN(C)C(=O)[C@H](Cc2ccc(C)cc2)N(CC2CCCCC2)C(=O)CN(C)C(=O)CN(C)C1=O [PP0097] ([NMeL]I[Sar][Sar][X28][Sar][hPhe(3-Cl-4-CF3)]P[Ac5c][NMeGly(cPent)][NMeD]-Morpholide; lactam N-11),C (A compound having a KD ratio of 0.1 or more and less than 3 is denoted as C),C (A compound having a KD ratio of 0.1 or more and less than 3 is denoted as C),240 nM
C=CCN1C(=O)CN(C)C(=O)CN(C)C(=O)[C@H]([C@@H](C)CC)NC(=O)[C@H](CC(C)C)N(C)C(=O)C[C@@H](C(=O)N2CCOCC2)N(C)C(=O)[C@H](C2CCCC2)N(C)C(=O)C2(CCCC2)NC(=O)[C@@H]2CCCN2C(=O)[C@H](CCc2ccc(C(F)(F)F)c(Cl)c2)NC(=O)CN(C)C(=O)[C@@H]1Cc1ccc(C)cc1 [PP0100] ([NMeL]I[Sar][Sar][X50][Sar][hPhe(3-Cl-4-CF3)]P[Ac5c][NMeGly(cPent)][NMeD]-Morpholide; lactam N-11),B (a compound having 3 or more and less than 10 is denoted as B),C (A compound having a KD ratio of 0.1 or more and less than 3 is denoted as C),24.3 nM
C=CCCN1C(=O)CN(C)C(=O)CN(C)C(=O)[C@H]([C@@H](C)CC)NC(=O)[C@H](CC(C)C)N(C)C(=O)C[C@@H](C(=O)N2CCOCC2)N(C)C(=O)[C@H](C2CCCC2)N(C)C(=O)C2(CCCC2)NC(=O)[C@@H]2CCCN2C(=O)[C@H](CCc2ccc(C(F)(F)F)c(Cl)c2)NC(=O)CN(C)C(=O)[C@@H]1Cc1ccc(C)cc1 [PP0101] ([NMeL]I[Sar][Sar][X46][Sar][hPhe(3-Cl-4-CF3)]P[Ac5c][NMeGly(cPent)][NMeD]-Morpholide; lactam N-11),B (a compound having 3 or more and less than 10 is denoted as B),C (A compound having a KD ratio of 0.1 or more and less than 3 is denoted as C),10.4 nM
CC[C@H](C)[C@@H]1NC(=O)[C@H](CC(C)C)N(C)C(=O)C[C@@H](C(=O)N2CCOCC2)N(C)C(=O)[C@H](C2CCCC2)N(C)C(=O)C2(CCCC2)NC(=O)[C@@H]2CCCN2C(=O)[C@H](CCc2ccc(C(F)(F)F)c(Cl)c2)NC(=O)CN(C)C(=O)[C@H](Cc2ccc(C)cc2)N(CCC(F)(F)F)C(=O)CN(C)C(=O)CN(C)C1=O [PP0103] ([NMeL]I[Sar][Sar][X42][Sar][hPhe(3-Cl-4-CF3)]P[Ac5c][NMeGly(cPent)][NMeD]-Morpholide; lactam N-11),B (a compound having 3 or more and less than 10 is denoted as B),C (A compound having a KD ratio of 0.1 or more and less than 3 is denoted as C),8.2 nM
CC[C@H](C)[C@@H]1NC(=O)[C@H](CC(C)C)N(C)C(=O)C[C@@H](C(=O)N2CCOCC2)N(C)C(=O)[C@H](C2CCCC2)N(C)C(=O)C2(CCCC2)NC(=O)[C@@H]2CCCN2C(=O)[C@H](CCc2ccc(C(F)(F)F)c(Cl)c2)NC(=O)CN(C)C(=O)[C@H](Cc2ccc(C)cc2)N(CCOC)C(=O)CN(C)C(=O)CN(C)C1=O [PP0104] ([NMeL]I[Sar][Sar][X14][Sar][hPhe(3-Cl-4-CF3)]P[Ac5c][NMeGly(cPent)][NMeD]-Morpholide; lactam N-11),B (a compound having 3 or more and less than 10 is denoted as B),C (A compound having a KD ratio of 0.1 or more and less than 3 is denoted as C),6.7 nM
CC[C@H](C)[C@@H]1NC(=O)[C@H](CC(C)C)N(C)C(=O)C[C@@H](C(=O)N2CCOCC2)N(C)C(=O)[C@H](C2CCCC2)N(C)C(=O)C2(CCCC2)NC(=O)[C@@H]2CCCN2C(=O)[C@H](CCc2ccc(C(F)(F)F)c(Cl)c2)NC(=O)CN(C)C(=O)[C@H](Cc2ccc(C)cc2)N(CCCOC)C(=O)CN(C)C(=O)CN(C)C1=O [PP0105] ([NMeL]I[Sar][Sar][X27][Sar][hPhe(3-Cl-4-CF3)]P[Ac5c][NMeGly(cPent)][NMeD]-Morpholide; lactam N-11),B (a compound having 3 or more and less than 10 is denoted as B),C (A compound having a KD ratio of 0.1 or more and less than 3 is denoted as C),8.3 nM
CCCCN1C(=O)[C@@H]2CCN2C(=O)[C@H](C)N(C)C(=O)[C@H]([C@@H](C)CC)NC(=O)[C@H](CC(C)C)N(C)C(=O)C[C@@H](C(=O)N2CCOCC2)N(C)C(=O)[C@H](C2CCCC2)N(C)C(=O)C2(CCCC2)NC(=O)[C@@H]2CCCN2C(=O)[C@H](CCc2ccc(C(F)(F)F)c(Cl)c2)NC(=O)CN(C)C(=O)[C@@H]1Cc1ccc(C(F)(F)F)cc1 [PP0106] ([NMeL]I[NMeA][Aze][X18][Sar][hPhe(3-Cl-4-CF3)]P[Ac5c][NMeGly(cPent)][NMeD]-Morpholide; lactam N-11),C (A compound having a KD ratio of 0.1 or more and less than 3 is denoted as C),B (a compound having 3 or more and less than 10 is denoted as B),12.3 nM
CC[C@H](C)[C@@H]1NC(=O)[C@H](CC(C)C)N(C)C(=O)C[C@@H](C(=O)N2CCOCC2)N(C)C(=O)[C@H](C2CCCC2)N(C)C(=O)C2(CCCC2)NC(=O)[C@@H]2CCCN2C(=O)[C@H](CCc2ccc(C(F)(F)F)c(Cl)c2)NC(=O)CN(C)C(=O)[C@H](Cc2ccc(C(F)(F)F)cc2)N(CC(C)C)C(=O)[C@@H]2CCN2C(=O)[C@H](C)N(C)C1=O [PP0107] ([NMeL]I[NMeA][Aze][X24][Sar][hPhe(3-Cl-4-CF3)]P[Ac5c][NMeGly(cPent)][NMeD]-Morpholide; lactam N-11),C (A compound having a KD ratio of 0.1 or more and less than 3 is denoted as C),C (A compound having a KD ratio of 0.1 or more and less than 3 is denoted as C),32.2 nM
CC[C@H](C)[C@@H]1NC(=O)[C@H](CC(C)C)N(C)C(=O)C[C@@H](C(=O)N2CCOCC2)N(C)C(=O)[C@H](C2CCCC2)N(C)C(=O)C2(CCCC2)NC(=O)[C@@H]2CCCN2C(=O)[C@H](CCc2ccc(C(F)(F)F)c(Cl)c2)NC(=O)CN(C)C(=O)[C@H](Cc2ccc(C(F)(F)F)cc2)N(CC2CC2)C(=O)[C@@H]2CCN2C(=O)[C@H](C)N(C)C1=O [PP0108] ([NMeL]I[NMeA][Aze][X33][Sar][hPhe(3-Cl-4-CF3)]P[Ac5c][NMeGly(cPent)][NMeD]-Morpholide; lactam N-11),C (A compound having a KD ratio of 0.1 or more and less than 3 is denoted as C),C (A compound having a KD ratio of 0.1 or more and less than 3 is denoted as C),9 nM
CC[C@H](C)[C@@H]1NC(=O)[C@H](CC(C)C)N(C)C(=O)C[C@@H](C(=O)N2CCOCC2)N(C)C(=O)[C@H](C2CCCC2)N(C)C(=O)C2(CCCC2)NC(=O)[C@@H]2CCCN2C(=O)[C@H](CCc2ccc(C(F)(F)F)c(Cl)c2)NC(=O)CN(C)C(=O)[C@H](Cc2ccc(C(F)(F)F)cc2)N(CC2CCC2)C(=O)[C@@H]2CCN2C(=O)[C@H](C)N(C)C1=O [PP0109] ([NMeL]I[NMeA][Aze][X39][Sar][hPhe(3-Cl-4-CF3)]P[Ac5c][NMeGly(cPent)][NMeD]-Morpholide; lactam N-11),C (A compound having a KD ratio of 0.1 or more and less than 3 is denoted as C),B (a compound having 3 or more and less than 10 is denoted as B),21.7 nM
CC[C@H](C)[C@@H]1NC(=O)[C@H](CC(C)C)N(C)C(=O)C[C@@H](C(=O)N2CCOCC2)N(C)C(=O)[C@H](C2CCCC2)N(C)C(=O)C2(CCCC2)NC(=O)[C@@H]2CCCN2C(=O)[C@H](CCc2ccc(C(F)(F)F)c(Cl)c2)NC(=O)CN(C)C(=O)[C@H](Cc2ccc(C(F)(F)F)cc2)N(CC2CCCC2)C(=O)[C@@H]2CCN2C(=O)[C@H](C)N(C)C1=O [PP0110] ([NMeL]I[NMeA][Aze][X23][Sar][hPhe(3-Cl-4-CF3)]P[Ac5c][NMeGly(cPent)][NMeD]-Morpholide; lactam N-11),C (A compound having a KD ratio of 0.1 or more and less than 3 is denoted as C),B (a compound having 3 or more and less than 10 is denoted as B),56.5 nM
C=CCN1C(=O)[C@@H]2CCN2C(=O)[C@H](C)N(C)C(=O)[C@H]([C@@H](C)CC)NC(=O)[C@H](CC(C)C)N(C)C(=O)C[C@@H](C(=O)N2CCOCC2)N(C)C(=O)[C@H](C2CCCC2)N(C)C(=O)C2(CCCC2)NC(=O)[C@@H]2CCCN2C(=O)[C@H](CCc2ccc(C(F)(F)F)c(Cl)c2)NC(=O)CN(C)C(=O)[C@@H]1Cc1ccc(C(F)(F)F)cc1 [PP0114] ([NMeL]I[NMeA][Aze][X12][Sar][hPhe(3-Cl-4-CF3)]P[Ac5c][NMeGly(cPent)][NMeD]-Morpholide; lactam N-11),C (A compound having a KD ratio of 0.1 or more and less than 3 is denoted as C),C (A compound having a KD ratio of 0.1 or more and less than 3 is denoted as C),6.1 nM
